Assay results reported in publication PMC4362760, “JAK2^V617F Drives Mcl-1 Expression and Sensitizes Hematologic Cell Lines to Dual Inhibition of JAK2 and Bcl-xL” (PLoS ONE, 2015).

Legend:
[1] = system: SET-2 cells; assay: alamarBlue cell viability, JAKi-I/ABT-263 combination, 72 hr, SET-2; type: cell-based; conditions: SET-2, 72h, Jaki-1 0 uM
Experimental: (§1) Transfection of siRNAs was performed using Lipofectamine RNAiMAX according to the manufacturer’s recommendations. […] Caspase-3 activity was determined using the Caspase-GLO 3/7 Assay (Promega) in parallel with the CellTiter-GLO viability assay (Promega). The data are expressed as Caspase-3/7 activity divided by cell viability.
(§2) Caspase-3 activity was determined at each time point. Data are from duplicate samples and are representative of at least three independent experiments. (D-G) Cells were treated in combination as indicated, and cell viability was determined after 72 hr. Data are means of duplicate determinations, and are representative of at least three independent experiments. […] Drugs were added simultaneously, and cell viability was determined after 72 hr. The data were then analyzed using the drug-drug interaction model of Bliss additivity^16 to define dose combinations that were synergistic (values >15; red), antagonistic (values <-15; blue), or without effect (-15<values<15; gray). (I) Model of JAK2/Bcl-2 family inhibitor synergy. JAK2^V617F constitutively phosphorylates and activates STAT3/5, thus enforcing expression of the transcriptional target, Mcl-1. Mcl-1 collaborates with Bcl-XL to oppose apoptosis and support viability.
(§3) Supplementary file pone.0114363.s006.xls: S6 Dataset Cells were treated in combination as indicated, and cell viability was determined using alamarBlue after 72 hr. Data are means of duplicate determinations, and are representative of at least three independent experiments. (XLS) Click here for additional data file.

[2] = system: HEL cells; assay: alamarBlue cell viability, JAKi-I/ABT-263 combination, 72 hr, HEL; type: cell-based; conditions: Jaki-1 0 uM
Experimental: as §1, §2, §3

[3] = biological target: Bcl-w; conditions: cited from earlier work
[4] = system: JAK2 V617F-positive and -negative leukemia cell lines; assay: Drug-drug interaction across leukemia lines: ABT-263 dose shift and Bliss additivity matrix, 72-hr cell viability; type: cell-based; conditions: JAKi-I and ABT-263 0.03-1 μM matrix, 72-hr viability, cell lines carrying JAK2 V617F
Experimental: as §1, §2

[5] = biological target: AMPK; assay: TR-FRET Kinome AMPK; type: binding, human; conditions: AMPK Invitrogen .1(Subs Conc)
Source text: (§4) (XLS) Click here for additional data file.

[6] = biological target: Plk3 (Homo sapiens, UniProt Q9H4B4); assay: TR-FRET Kinome Plk3; type: binding; conditions: Plk3 Invitrogen .05(Subs Conc)
Source text: as §4

[7] = biological target: Wee1 (Homo sapiens, UniProt P30291); assay: TR-FRET Kinome Wee1; type: binding; conditions: Wee1 Carna Biosciences .015(Subs Conc)
Source text: as §4

[8] = biological target: DDR1 (Homo sapiens, UniProt Q08345); assay: TR-FRET Kinome DDR1; type: binding; conditions: DDR1 Invitrogen .01(Subs Conc)
Source text: as §4

[9] = biological target: Rock2 (Homo sapiens, UniProt O75116); assay: TR-FRET Kinome Rock2; type: binding; conditions: Rock2 Invitrogen .012(Subs Conc)
Source text: as §4

[10] = biological target: Abl (Homo sapiens, UniProt P00519); assay: TR-FRET Kinome Abl; type: binding; conditions: Abl Invitrogen .025(Subs Conc)
Source text: as §4

[11] = system: Mcl-1; assay: Mcl-1 protein level by immunoblotting, quantitation by LiCor Odyssey Imager; type: cell-based
Experimental: (§5) SET-2, HEL, MV4;11, and K562 cells were obtained from ATCC and cultured as recommended. UKE-1 cells were purchased from Walter Fiedler (University of Hamburg). Cell lysates were either prepared using CHAPS lysis buffer (10 mM HEPES, pH 7.4, 150 mM NaCl, 1% CHAPS) or cell extraction buffer containing 1% Triton X-100, 0.1% SDS, and 0.5% deoxycholate. All buffers were supplemented with protease and phosphatase inhibitor cocktails prior to use.
(§6) Fig 1 Regulation of Mcl-1 and Bcl-XL by JAK2 ^V617F. […] Tyrosine phoshorylation of STAT3 and STAT5 was determined by immunoblotting. […] Constitutive tyrosine phosphorylation of STAT3 and STAT5 was determined by immunoblotting. […] Data represent means +/- standard deviation for two independent determinations each performed in triplicate. […] (G) Quantification of the data shown in (F). Data are expressed as the ratio of intensity of Mcl-1/β-actin for each time point. […] Data are means of duplicate samples and are representative of two independent experiments.
Supplementary file pone.0114363.s003.xls: S3 Dataset Quantitation of western blot data by LiCor Odyssey Imager. (XLS) Click here for additional data file.

[12] = system: STAT3 and STAT5 tyrosine phosphorylation; assay: Tyrosine phosphorylation of STAT3 and STAT5 by immunoblotting in leukemia cell lines; type: cell-based
Experimental: as §5, §6

[13] = biological target: T1, Syk CatDom (Homo sapiens, UniProt P43405); assay: TR-FRET Kinome Syk CatDom; type: binding; conditions: Syk CatDom .006(Subs Conc)
T1 construct: Syk CatDom
Source text: as §4

[14] = system: STAT3 binding to the Mcl-1 promoter; assay: ChIP of STAT3 binding to the Mcl-1 promoter (EZ-ChIP); type: cell-based; conditions: 1 μM, 6 hr; cell lines expressing JAK2 V617F, not in lines without this lesion
[15] = biological target: Akt1 (Homo sapiens, UniProt P31749); assay: TR-FRET Kinome Akt1; type: binding; conditions: Akt1 Invitrogen .2(Subs Conc)
Source text: as §4

[16] = system: Bcl-XL; assay: Bcl-XL protein level by immunoblotting; type: cell-based; conditions: 24-hr time course
Experimental: as §5, §6

Chain of Rock2 (O75116 whole entry): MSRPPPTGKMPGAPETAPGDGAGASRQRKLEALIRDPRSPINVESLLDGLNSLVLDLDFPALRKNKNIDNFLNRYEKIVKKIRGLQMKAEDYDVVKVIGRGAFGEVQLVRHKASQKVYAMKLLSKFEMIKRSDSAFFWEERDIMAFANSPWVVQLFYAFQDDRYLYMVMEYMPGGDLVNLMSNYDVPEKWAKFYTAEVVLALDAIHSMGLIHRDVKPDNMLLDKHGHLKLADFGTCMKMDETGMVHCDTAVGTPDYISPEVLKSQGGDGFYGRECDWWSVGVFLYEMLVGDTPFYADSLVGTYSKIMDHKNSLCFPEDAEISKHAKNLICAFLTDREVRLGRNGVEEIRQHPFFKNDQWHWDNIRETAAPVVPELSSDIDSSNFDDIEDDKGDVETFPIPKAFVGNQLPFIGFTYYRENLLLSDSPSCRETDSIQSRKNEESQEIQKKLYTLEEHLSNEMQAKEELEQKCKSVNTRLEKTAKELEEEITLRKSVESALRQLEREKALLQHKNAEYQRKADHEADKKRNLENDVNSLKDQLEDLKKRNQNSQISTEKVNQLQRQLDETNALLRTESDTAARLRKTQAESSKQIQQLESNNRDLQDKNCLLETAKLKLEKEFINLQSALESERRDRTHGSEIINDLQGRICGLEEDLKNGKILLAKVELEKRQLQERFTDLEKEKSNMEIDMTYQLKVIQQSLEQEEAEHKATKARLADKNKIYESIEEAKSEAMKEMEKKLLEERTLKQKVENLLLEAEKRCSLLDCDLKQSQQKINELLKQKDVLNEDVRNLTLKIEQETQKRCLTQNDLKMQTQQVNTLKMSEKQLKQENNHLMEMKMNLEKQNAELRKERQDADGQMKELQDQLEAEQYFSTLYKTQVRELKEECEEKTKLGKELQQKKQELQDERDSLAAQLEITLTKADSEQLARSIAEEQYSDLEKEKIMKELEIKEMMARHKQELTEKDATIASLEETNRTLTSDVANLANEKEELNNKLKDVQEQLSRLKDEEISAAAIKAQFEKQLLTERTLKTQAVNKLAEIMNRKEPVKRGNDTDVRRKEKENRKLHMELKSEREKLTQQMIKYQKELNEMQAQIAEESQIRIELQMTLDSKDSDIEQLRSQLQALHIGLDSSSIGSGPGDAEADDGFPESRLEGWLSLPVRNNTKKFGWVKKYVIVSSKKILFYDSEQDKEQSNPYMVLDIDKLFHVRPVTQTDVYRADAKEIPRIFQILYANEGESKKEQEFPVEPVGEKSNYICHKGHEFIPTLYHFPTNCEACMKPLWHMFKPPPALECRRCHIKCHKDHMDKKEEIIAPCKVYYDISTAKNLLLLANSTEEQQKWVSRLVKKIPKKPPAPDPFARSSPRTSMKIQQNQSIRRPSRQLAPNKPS
Chain of Plk3 (Q9H4B4 whole entry): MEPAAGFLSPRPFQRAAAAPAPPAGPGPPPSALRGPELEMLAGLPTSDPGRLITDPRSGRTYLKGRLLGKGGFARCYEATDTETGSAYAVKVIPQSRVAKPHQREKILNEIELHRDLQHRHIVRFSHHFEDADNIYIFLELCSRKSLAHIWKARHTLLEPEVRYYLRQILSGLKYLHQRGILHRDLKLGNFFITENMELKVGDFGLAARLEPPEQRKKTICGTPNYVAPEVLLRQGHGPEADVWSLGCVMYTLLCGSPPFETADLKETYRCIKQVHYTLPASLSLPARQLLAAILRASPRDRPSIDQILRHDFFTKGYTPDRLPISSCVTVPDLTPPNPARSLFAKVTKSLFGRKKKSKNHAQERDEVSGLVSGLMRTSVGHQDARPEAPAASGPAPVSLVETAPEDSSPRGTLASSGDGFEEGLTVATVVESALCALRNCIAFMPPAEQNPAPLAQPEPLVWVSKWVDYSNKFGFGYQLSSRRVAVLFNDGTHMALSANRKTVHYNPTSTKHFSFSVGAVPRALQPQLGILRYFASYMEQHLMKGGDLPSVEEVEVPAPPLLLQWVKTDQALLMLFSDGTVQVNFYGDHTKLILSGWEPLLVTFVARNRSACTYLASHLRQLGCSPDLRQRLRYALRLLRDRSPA
Chain of Wee1 (P30291 whole entry): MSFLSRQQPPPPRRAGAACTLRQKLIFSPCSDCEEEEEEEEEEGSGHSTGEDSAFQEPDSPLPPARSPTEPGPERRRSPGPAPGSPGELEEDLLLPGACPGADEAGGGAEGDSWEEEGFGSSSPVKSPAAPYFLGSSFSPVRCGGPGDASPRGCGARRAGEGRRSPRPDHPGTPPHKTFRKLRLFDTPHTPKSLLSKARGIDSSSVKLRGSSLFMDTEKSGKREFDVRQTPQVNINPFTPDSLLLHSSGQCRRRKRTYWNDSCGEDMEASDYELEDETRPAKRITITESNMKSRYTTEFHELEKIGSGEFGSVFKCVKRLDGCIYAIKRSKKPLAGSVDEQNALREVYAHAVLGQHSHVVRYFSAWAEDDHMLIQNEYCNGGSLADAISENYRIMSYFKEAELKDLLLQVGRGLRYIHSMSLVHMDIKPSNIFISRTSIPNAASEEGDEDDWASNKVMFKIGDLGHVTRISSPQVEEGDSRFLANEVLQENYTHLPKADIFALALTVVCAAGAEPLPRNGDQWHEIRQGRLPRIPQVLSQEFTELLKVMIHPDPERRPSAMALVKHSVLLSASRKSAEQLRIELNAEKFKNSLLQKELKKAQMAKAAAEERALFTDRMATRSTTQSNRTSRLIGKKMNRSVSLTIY
Chain of Akt1 (P31749 whole entry): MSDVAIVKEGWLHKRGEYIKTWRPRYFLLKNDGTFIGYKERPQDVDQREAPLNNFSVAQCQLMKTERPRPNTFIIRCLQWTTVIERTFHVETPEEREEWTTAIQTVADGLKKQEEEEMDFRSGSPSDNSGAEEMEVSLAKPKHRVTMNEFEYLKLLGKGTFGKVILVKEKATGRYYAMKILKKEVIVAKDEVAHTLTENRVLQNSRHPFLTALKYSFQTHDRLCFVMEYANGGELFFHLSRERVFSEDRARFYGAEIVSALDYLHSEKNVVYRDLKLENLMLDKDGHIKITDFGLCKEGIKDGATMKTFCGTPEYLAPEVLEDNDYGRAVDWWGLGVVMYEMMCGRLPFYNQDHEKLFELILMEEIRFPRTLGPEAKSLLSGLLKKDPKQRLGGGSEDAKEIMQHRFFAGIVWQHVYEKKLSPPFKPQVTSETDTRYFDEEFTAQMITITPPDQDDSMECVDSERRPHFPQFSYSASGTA
Chain of DDR1 (Q08345 19-913): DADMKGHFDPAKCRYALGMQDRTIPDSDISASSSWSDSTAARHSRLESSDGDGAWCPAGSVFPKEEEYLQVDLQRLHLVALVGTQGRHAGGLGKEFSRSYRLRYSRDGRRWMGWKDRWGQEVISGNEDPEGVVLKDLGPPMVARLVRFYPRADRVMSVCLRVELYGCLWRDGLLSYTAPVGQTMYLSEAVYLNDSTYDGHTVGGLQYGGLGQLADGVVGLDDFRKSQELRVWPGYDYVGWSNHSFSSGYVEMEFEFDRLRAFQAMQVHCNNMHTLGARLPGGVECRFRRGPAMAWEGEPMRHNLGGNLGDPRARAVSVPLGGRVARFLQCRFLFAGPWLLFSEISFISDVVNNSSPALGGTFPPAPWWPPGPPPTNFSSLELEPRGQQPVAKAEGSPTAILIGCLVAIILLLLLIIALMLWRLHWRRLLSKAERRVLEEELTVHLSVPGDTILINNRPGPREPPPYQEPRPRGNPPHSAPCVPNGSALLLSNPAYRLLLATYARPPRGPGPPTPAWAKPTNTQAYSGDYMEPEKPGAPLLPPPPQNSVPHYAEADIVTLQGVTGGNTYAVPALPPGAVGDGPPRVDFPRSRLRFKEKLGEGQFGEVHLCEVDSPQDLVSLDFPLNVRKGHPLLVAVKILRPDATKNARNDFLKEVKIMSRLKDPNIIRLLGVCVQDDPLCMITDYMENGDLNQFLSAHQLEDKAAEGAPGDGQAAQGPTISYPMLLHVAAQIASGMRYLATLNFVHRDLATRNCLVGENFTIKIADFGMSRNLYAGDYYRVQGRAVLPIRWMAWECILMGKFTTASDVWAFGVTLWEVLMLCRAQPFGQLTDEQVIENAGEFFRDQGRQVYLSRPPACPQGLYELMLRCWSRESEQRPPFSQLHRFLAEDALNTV

CC1(C)CCC(c2ccc(Cl)cc2)=C(CN2CCN(c3ccc(C(=O)NS(=O)(=O)c4ccc(N[C@H](CCN5CCOCC5)CSc5ccccc5)c(S(=O)(=O)C(F)(F)F)c4)cc3)CC2)C1 [ABT-263]
Viability (% Inhibiton) ([1]; ABT-263 0.003 uM): 0% | Viability (% Inhibiton) ([1]; ABT-263 0.01 uM): 3% | Viability (% Inhibiton) ([1]; ABT-263 0.03 uM): 4% | Viability (% Inhibiton) ([1]; ABT-263 0.1 uM): 28% | Viability (% Inhibiton) ([1]; ABT-263 0.3 uM): 63% | Viability (% Inhibiton) ([1]; ABT-263 1 uM): 95% | Viability (% Inhibiton) ([2]; ABT-263 0.003 uM): 0% | Viability (% Inhibiton) ([2]; ABT-263 0.01 uM): 0% | Viability (% Inhibiton) ([2]; ABT-263 0.03 uM): 1% | Viability (% Inhibiton) ([2]; ABT-263 0.1 uM): 14% | Viability (% Inhibiton) ([2]; ABT-263 0.3 uM): 55% | Viability (% Inhibiton) ([2]; ABT-263 1 uM): 95% | Ki [3]: < 1 nM | drug-drug interaction (Bliss additivity) [4]: Synergistic interactions

CC(C)(C)c1nc2c3cc[nH]c(=O)c3c3cc(F)ccc3c2[nH]1 [JAKi-I, JAK inhibitor I]
Ki [5]: 148 nM | Ki [6]: > 1550 nM | Ki [7]: > 3640 nM | Ki [8]: > 2590 nM | Ki [9]: > 3330 nM | Ki [10]: > 2600 nM | Mcl-1 protein level ([11]; 24-hr time course): sharply declined | Mcl-1 protein (% control) ([11]; HEL, 1 uM Jaki-I, 2 hr): 62 % control | Mcl-1 protein (% control) ([11]; HEL, 1 uM Jaki-I, 6 hr): 45 % control | Mcl-1 protein (% control) ([11]; HEL, 1 uM Jaki-I, 24 hr): 42 % control | Mcl-1 protein (% control) ([11]; K562, 1 uM Jaki-I, 2 hr): 100 % control | Mcl-1 protein (% control) ([11]; K562, 1 uM Jaki-I, 6 hr): 93 % control | Mcl-1 protein (% control) ([11]; K562, 1 uM Jaki-I, 24 hr): 93 % control | Mcl-1 protein (% control) ([11]; MV4:11, 1 uM Jaki-I, 2 hr): 75 % control | Mcl-1 protein (% control) ([11]; MV4:11, 1 uM Jaki-I, 6 hr): 74 % control | Mcl-1 protein (% control) ([11]; MV4:11, 1 uM Jaki-I, 24 hr): 65 % control | Mcl-1 protein (% control) ([11]; SET-2, 1 uM Jaki-I, 2 hr): 68 % control | Mcl-1 protein (% control) ([11]; SET-2, 1 uM Jaki-I, 6 hr): 50 % control | Mcl-1 protein (% control) ([11]; SET-2, 1 uM Jaki-I, 24 hr): 35 % control | Mcl-1 protein (% control) ([11]; UKE-1, 1 uM Jaki-I, 2 hr): 50 % control | Mcl-1 protein (% control) ([11]; UKE-1, 1 uM Jaki-I, 6 hr): 25 % control | Mcl-1 protein (% control) ([11]; UKE-1, 1 uM Jaki-I, 24 hr): 22 % control | Mcl-1 protein stability ([11]; in the presence of cycloheximide (data not shown)): not altered | constitutive STAT3/5 phosphorylation ([12]; 1 μM, 1 hr, serum-free, only in JAK2 V617F lines (SET-2, UKE-1, HEL), not K562, MV4;11): inhibited | phosphorylation of both STAT3 and STAT5 ([12]; UKE-1 (JAK2 V617F) cells, 10 min): rapid, dose-dependent inhibition | Ki [13]: > 3260 nM | STAT3 binding to the MCL1 promoter [14]: disrupted | Ki [15]: > 5010 nM | Bcl-XL protein level [16]: sharply declined
